# Measurements reported in patent EP0339193A1, “Peptide ligands for bombesin receptors” (FARMITALIA CARLO ERBA S.r.l., priority 1988, dated 1989).
# Counter-ions that a name gives are not always drawn. Numbered stars: 1 amine (or outer) side, 2 acyl side, 3 side chain; on linkers, the order of the positions; unused ones are H or OH. Square brackets hold non-standard residues; d marks the D form. Ends that are not written are not given here. Peptide text beside a SMILES is read from it. * marks the point of attachment. His(Dnp) = O=C([C@H](Cc1cn(-c2ccc([N+](=O)[O-])cc2[N+](=O)[O-])cn1)N[*:1])[*:2]; Dnp = O=[N+]([O-])c1ccc(*)c([N+](=O)[O-])c1; Boc = CC(C)(C)OC(=O)*; NHPentyl = CCCCCN*
# Key:
# bombesin receptors = molecular target: T1, bombesin receptors (Mus musculus, UniProt P21729); experiment: Binding affinity for the bombesin receptors on Swiss 3T3 fibroblasts; conditions: binding affinity on mouse Swiss 3T3 fibroblasts; for IC50: read-out: ID₅₀
# T1 construct: has been determined on Swiss 3T3 fibroblasts; endogenous in cells; host or cells: mouse Swiss 3T3 fibroblasts
# From the text: The binding affinity of the compounds of the present invention for the bombesin receptors has been determined on Swiss 3T3 fibroblasts (I. Zachary and E. Rozengurt (1985) Proc. Natl. Acad. Sci. USA, 82, 7616-7620) (Table 1).
# [1] = tested on: rat grooming behaviour stimulated by bombesin; experiment: Grooming behaviour in the rat after i.c.v. administration (inhibition of bombesin-stimulated grooming); format: in vivo
# From the text: The antagonistic activity has been evaluated both in vitro and in vivo; in vitro, as inhibition of the bombesin-induced DNA synthesis in Swiss 3T3 cells (A.N. Corps et al. (1985) Biochem. J., 231, 781-785) (Table 2) and rat urinary bladder contraction (M. Broccardo et al. (1975) Br. J.Pharmac., 55, 221-227) (Table 3); in vivo, by i.c.v. administration, as inhibition of the rat grooming behaviour stimulated by bombesin (A. Cowan et al. (1985) Life Sciences, 37, 135-145) (Table 4).
# T1 sequence (P21729 whole entry): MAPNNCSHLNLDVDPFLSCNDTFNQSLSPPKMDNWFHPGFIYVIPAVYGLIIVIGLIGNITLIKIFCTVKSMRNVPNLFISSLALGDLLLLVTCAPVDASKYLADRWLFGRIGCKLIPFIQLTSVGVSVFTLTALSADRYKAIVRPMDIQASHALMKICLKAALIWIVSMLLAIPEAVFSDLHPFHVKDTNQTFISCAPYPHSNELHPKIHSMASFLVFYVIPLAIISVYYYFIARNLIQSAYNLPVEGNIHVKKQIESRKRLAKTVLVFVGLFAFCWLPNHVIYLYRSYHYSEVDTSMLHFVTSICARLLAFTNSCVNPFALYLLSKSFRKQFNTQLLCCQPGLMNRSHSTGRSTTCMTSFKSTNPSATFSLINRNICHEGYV
Molecule,IC50 (bombesin receptors),ID₅₀ (bombesin receptors),further results
"CSCC[C@H](NC(=O)[C@H](CC(C)C)NC(=O)[C@H](Cc1c[nH]cn1)NC(=O)CNC(=O)[C@@H](NC(=O)[C@H](C)NC(=O)[C@H](Cc1c[nH]c2ccccc12)NC(=O)[C@H](CCC(N)=O)NC(=O)[C@@H](N)CC(N)=O)C(C)C)C(N)=O [BBS(6-14)nonapeptide, reference compound]",0.0094 ± 0.0031 µM,–,–
"CSCC[C@H](NC(=O)[C@H](CC(C)C)NC(=O)[C@@H](Cc1ccccc1)NC(=O)CNC(=O)[C@@H](NC(=O)[C@H](C)NC(=O)[C@H](Cc1c[nH]c2ccccc12)NC(=O)[C@H](CCC(N)=O)NC(=O)[C@@H](NC(=O)OC(C)(C)C)[C@@H](C)O)C(C)C)C(N)=O [XVI, Boc-Thr-Gln-Trp-Ala-Val-Gly-phe-Leu-Met-NH₂] (Boc-TQWAVG[dF]LM-NH2)",19.5 µM,–,–
"CSCC[C@H](NC(=O)[C@H](CC(C)C)NC(=O)[C@@H](Cc1ccccc1)NC(=O)CNC(=O)[C@@H](NC(=O)[C@H](C)NC(=O)[C@H](Cc1c[nH]c2ccccc12)NC(=O)[C@H](CCC(N)=O)NC(=O)[C@@H](N)[C@@H](C)O)C(C)C)C(N)=O [XVII, HCl.H-Thr-Gln-Trp-Ala-Val-Gly-phe-Leu-Met-NH₂] (H-TQWAVG[dF]LM-NH2)",32.5 µM,–,–
"CSCC[C@H](NC(=O)[C@H](CC(C)C)NC(=O)CNC(=O)[C@@H](NC(=O)[C@H](C)NC(=O)[C@H](Cc1c[nH]c2ccccc12)NC(=O)[C@H](CCC(N)=O)NC(=O)[C@@H](NC(=O)OC(C)(C)C)[C@@H](C)O)C(C)C)C(N)=O [XVIII, Boc-Thr-Gln-Trp-Ala-Val-Gly-Leu-Met-NH₂] (Boc-TQWAVGLM-NH2)",1 µM,–,–
"CSCC[C@H](NC(=O)[C@@H](CC(C)C)NC(=O)[C@H](Cc1c[nH]cn1)NC(=O)CNC(=O)[C@@H](NC(=O)[C@H](C)NC(=O)[C@H](Cc1c[nH]c2ccccc12)NC(=O)[C@H](CCC(N)=O)NC(=O)[C@@H](N)[C@@H](C)O)C(C)C)C(N)=O [XXI, H-Thr-Gln-Trp-Ala-Val-Gly-His-leu-Met-NH₂.CF₃COOH]",10 µM,–,Grooming score ([1]; BBS 0.01 µg/rat + XXI 10 µg/rat in combination): 35; Grooming score ([1]; peptide XXI 10 µg/rat alone): 15
"CCCCCNC(=O)[C@H](CC(C)C)NC(=O)[C@H](Cc1c[nH]cn1)NC(=O)CNC(=O)[C@@H](NC(=O)[C@H](C)NC(=O)[C@H](Cc1c[nH]c2ccccc12)NC(=O)[C@H](CCC(N)=O)NC(=O)[C@@H](N)[C@@H](C)O)C(C)C [XXVIII, H-Thr-Gln-Trp-Ala-Val-Gly-His-Leu-NH(CH₂)₄CH₃. 2CF₃COOH] (H-TQWAVGHL-NHPentyl)",0.076 ± 0.03 µM,–,–
"CC(C)C[C@H](NC(=O)[C@H](Cc1c[nH]cn1)NC(=O)CNC(=O)[C@@H](NC(=O)[C@H](C)NC(=O)[C@H](Cc1c[nH]c2ccccc12)NC(=O)[C@H](CCC(N)=O)NC(=O)[C@@H](NC(=O)OC(C)(C)C)[C@@H](C)O)C(C)C)C(N)=O [XXXIII, Boc-Thr-Gln-Trp-Ala-Val-Gly-His-Leu-NH₂] (Boc-TQWAVGHL-NH2)",0.556 ± 0.128 µM,–,–
"CSCC[C@H](NC(=O)[C@H](CC(C)C)NC(=O)[C@@H](C)NC(=O)CNC(=O)[C@@H](NC(=O)[C@H](C)NC(=O)[C@H](Cc1c[nH]c2ccccc12)NC(=O)[C@H](CCC(N)=O)NC(=O)[C@@H](NC(=O)OC(C)(C)C)[C@@H](C)O)C(C)C)C(N)=O [XXXIV, Boc-Thr-Gln-Trp-Ala-Val-Gly-ala-Leu-Met-NH₂] (Boc-TQWAVG[dA]LM-NH2)",18.2 µM,–,–
Boc-Thr-Gln-Trp-Ala-Val-Gly-His(Dnp)-Leu-NH₂ (Boc-TQWAVG[His(Dnp)]L-NH2; SMILES CC(C)C[C@H](NC(=O)[C@H](Cc1cn(-c2ccc([N+](=O)[O-])cc2[N+](=O)[O-])cn1)NC(=O)CNC(=O)[C@@H](NC(=O)[C@H](C)NC(=O)[C@H](Cc1c[nH]c2ccccc12)NC(=O)[C@H](CCC(N)=O)NC(=O)[C@@H](NC(=O)OC(C)(C)C)[C@@H](C)O)C(C)C)C(N)=O) [XXXII],–,770 ± 13 nM,–
"Glp-Gln-Arg-Leu-Gly-Asn-Gln-Trp-Ala-Val-Gly-His-Leu-Met-NH₂ [BBS, reference compound]",–,12.6 ± 3.8 nM,Grooming score ([1]; BBS 0.01 µg/rat alone): 55
H-Thr-Gln-Trp-Ala-Val-Gly-His(Dnp)-Leu-Met-NH₂ . HCl (TQWAVGH; His(Dnp)-Leu-Met-NH2 extension; HCl salt; printed: Thr-Gln-Trp-Ala-Val-Gly-His) [XXII],–,"5,800 ± 750 nM",–
H-Thr-Gln-Trp-Ala-Val-Gly-His(Dnp)-Leu-NH(CH₂)₄ CH₃.CF₃COOH (H-TQWAVG[His(Dnp)]L-{NH(CH2)4CH3}; also: TFA salt) [XXVII],–,335 ± 101 nM,–
H-Thr-Gln-Trp-Ala-Val-Gly-His(Dnp)-leu-Met-NH₂ . HCl (H-TQWAVGH(Dnp); not fully specified (C-terminus); also: HCl salt) [XX],–,"63,000 nM",–
"KTQWAVGALM-NH2 [XXV, H-Lys-Thr-Gln-Trp-Ala-Val-Gly-Ala-Leu-Met-NH₂ . 2HCl]",0.97 ± 0.004 µM,–,–
"RTQWAVGALM-NH2 [XXVI, H-Arg-Thr-Gln-Trp-Ala-Val-Gly-Ala-Leu-Met-NH₂. 2CF₃COOH]",0.2 ± 0.06 µM,–,–
"TQWAVGFLM-NH2 [XXIII, H-Thr-Gln-Trp-Ala-Val-Gly-Phe-Leu-Met-NH₂.CF₃COOH]",4.7 µM,–,–
"TQWAVGLM-NH2 [XIX, HCl. H-Thr-Gln-Trp-Ala-Val-Gly-Leu-Met-NH₂]",3.4 µM,–,–
"TQWAVGSLM-NH2 [XXIV, H-Thr-Gln-Trp-Ala-Val-Gly-Ser-Leu-Met-NH₂.CF₃COOH]",0.59 ± 0.13 µM,–,–
"p-GRP: porcine gastrin releasing peptide (APVSVGGGTVLAKMYPRGNHWAVGHLM; ends and bridges not checked; UniProt P63153 24-50, looked up) [reference compound]",–,17.6 ± 4.0 nM,–
